For one molecule, Activity results are on record in ChEMBL document CHEMBL1131737, “An efficient stereoselective synthesis of [3S(1S,9S)]-3-[[[9-(benzoylamino) octahydro-6,10-dioxo-6H-pyridazino-(1,2-a)(1,2)-diazepin-1-yl]-carbonyl ]amino]-4-oxobutanoic acid, an interleukin converting enzyme (ICE) inhibitor” (Bioorg Med Chem Lett, 1999).

Calls of active or inactive are those of the source. The calls are words filed in the database; no cut-off is given here.

The assay concerns the target T1, Caspase-1 (Homo sapiens) (UniProt P29466).
T1 sequence (whole entry): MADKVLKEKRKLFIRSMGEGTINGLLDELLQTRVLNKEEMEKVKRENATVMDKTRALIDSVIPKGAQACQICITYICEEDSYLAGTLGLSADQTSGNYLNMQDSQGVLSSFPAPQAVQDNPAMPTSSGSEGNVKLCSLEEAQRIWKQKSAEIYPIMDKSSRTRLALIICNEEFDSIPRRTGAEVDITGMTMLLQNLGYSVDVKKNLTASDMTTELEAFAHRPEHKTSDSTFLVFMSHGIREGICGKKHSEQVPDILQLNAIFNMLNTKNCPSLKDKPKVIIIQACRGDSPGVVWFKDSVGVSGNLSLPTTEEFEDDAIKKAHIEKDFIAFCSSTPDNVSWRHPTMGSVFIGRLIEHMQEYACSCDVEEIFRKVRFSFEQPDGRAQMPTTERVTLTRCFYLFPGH
The experiment in a line: Inhibitory activity against IL-1 beta converting enzyme; Active.

Take `O=C[C@H](CC(=O)O)NC(=O)[C@@H]1CCCN2C(=O)CC[C@H](NC(=O)c3ccccc3)C(=O)N12`: the result was Active.
